How the values were obtained:
[1] = Plasma cholesterol, triglyceride, NEFA and glycemia after myocardial ischaemia-reperfusion; type: in vivo, mice; details: for Triglyceride / Glycemia Post-Reperfusion / Total Cholesterol / Glycemia Before Ischemia: 300 μg/kg/day for 2 weeks; for Triglyceride: mean ± S.E.M.; for Glycemia Post-Reperfusion / Total Cholesterol / Glycemia Before Ischemia: mean ± S.E.M. (n)
Text: Animals. CD36^−/− mice were generated by targeted homologous recombination and backcrossed six times to C57BI/6. Wild-type control littermates (CD36^+/+) were bred from the same cross and were therefore of identical genetic background [Febbraio et al., 2000]. Male mice, aged 23 (±1) weeks, were used for experiments. They were fed standard chow (#5075, Charles Rivers, Saint-Constant, Québec, Canada) and water ad libitum, and housed singly during treatment periods (2 or 10 weeks). Daily pharmacological treatments with 300 μg/kg of EP 80317 or CP1A(IV) or vehicle (0.9% NaCl) were done by subcutaneous (s.c.) injections.
Experimental model of IHD: Transient left coronary artery ligation in vivo. Mice were subjected to a transient LCAL surgery as described before, with minor modifications [Tarnayski et al., 2004]. Mice were injected i.p. with buprenorphine (0.05 mg/kg) and placed in an induction chamber with inhalation anesthesia comprised of 3% isoflurane mixed with 100% oxygen. Mice were intubated with a blunt ended 20-gauge catheter into the trachea via the mouth and mechanically ventilated at a tidal volume of 7 ml/kg at 130 respirations/min with a MiniVent™ mouse ventilator (model 845, Harvard Apparatus, Saint-Laurent, QC, Canada). Anesthesia was maintained with 1.5-2% isoflurane and the animals were kept warm using electrical heating pads during the surgical procedure. The chest was opened by a horizontal incision through the skin and muscle layers at the third intercostal space exposing the left side of the heart. […] Visual blanching distal to the coronary occlusion confirmed myocardial ischaemia. Lidocaine (6 mg/kg) was administered i.p. just following occlusion and prior to reperfusion. After 30 minutes, the PE10 tubing was removed allowing reperfusion. The lungs were reinflated and the chest wound closed layer by layer before extubation. […] Hearts were immediately frozen at −80° C. unless otherwise stated. […]
Plasma and tissue assays. Plasma insulin, triglyceride (TG) and NEFA levels were measured as previously described [Menard et al., 2009]. In vitro lipolysis was prevented by collecting blood in the presence of 40 mM Orlistat (Calbiochem, San Diego, Calif., USA) and centrifuging rapidly. Plasma and tissue lipids were extracted according to the method described by Folch et al. [Folch et al., 1957]. The non-metabolized fraction of [^18F]-FTHA in plasma was determined using thin-layer chromatography from blood samples taken 2, 3, 5, 10, and 30 min after FTHA injection, and the metabolite corrected plasma curve was calculated by linear interpolation and used to correct the plasma input function (modified from [Ci et al., 2006]). Myocardial mitochondria were extracted with measurement of GDH activity to correct for extraction efficiency [Menard et al., 2009].

[2] = system: CD36^+/+ and CD36^−/− mice; assay: Ventricular and ejection volumes by ECG-gated μPET after transient myocardial ischemia; type: in vivo; details: EP 80317-treated WT mice vs 0.9% NaCl
Description: Experimental model of IHD: Transient left coronary artery ligation in vivo. Mice were subjected to a transient LCAL surgery as described before, with minor modifications [Tarnayski et al., 2004]. Mice were injected i.p. with buprenorphine (0.05 mg/kg) and placed in an induction chamber with inhalation anesthesia comprised of 3% isoflurane mixed with 100% oxygen. Mice were intubated with a blunt ended 20-gauge catheter into the trachea via the mouth and mechanically ventilated at a tidal volume of 7 ml/kg at 130 respirations/min with a MiniVent™ mouse ventilator (model 845, Harvard Apparatus, Saint-Laurent, QC, Canada). Anesthesia was maintained with 1.5-2% isoflurane and the animals were kept warm using electrical heating pads during the surgical procedure. The chest was opened by a horizontal incision through the skin and muscle layers at the third intercostal space exposing the left side of the heart. […] Visual blanching distal to the coronary occlusion confirmed myocardial ischaemia. Lidocaine (6 mg/kg) was administered i.p. just following occlusion and prior to reperfusion. After 30 minutes, the PE10 tubing was removed allowing reperfusion. The lungs were reinflated and the chest wound closed layer by layer before extubation. At 6 hours following reperfusion, mice were anesthetized (isoflurane), a blood sample withdrawn, and the heart arrested in diastole by an intravenous injection of 1 M KCl (0.5 mL). Hearts were immediately frozen at −80° C. unless otherwise stated.
Imaging experiments. Imaging experiments were performed with the avalanche photodiode-based small animal PET scanner (μPET) [Lecomte et al., 1996]. Before imaging, the heart position was localized with a Doppler probe (0.64 cm, 9 MHz; Parks Medical Electronics). […]
Imaging Data Analysis. For [^11C]-acetate images, dynamic series of 25 frames each were sorted out whereas 27 frames were used for ^18FDG and ^18FTHA imaging, and were reconstructed and analyzed using multicompartmental analysis [Menard et al., 2009] or the Patlak method for FTHA [Patlak and Blasberg, 1985]. […]

[3] = 6 h post-reperfusion, CD36^+/+ mice
[4] = 6 h post-reperfusion, CD36^−/− mice
[5] = 48 h post-reperfusion, CD36^+/+ mice
[6] = 48 h post-reperfusion, CD36^−/− mice

HAIC-2MeDTrp-DLys-Trp-DPhe-Lys-NH2 [EP 80317]
effect on plasma TG ([1]; 6 or 48 hours following reperfusion, both CD36^+/+ and CD36^−/− mice, in words): did not modulate | attenuation of plasma NEFA elevation ([1]; 6 hours after reperfusion, CD36-dependent (CD36^+/+ mice), p<0.05 vs vehicle): 29% | Triglyceride [1, 3]: 0.35 ± 0.04 mmol/L | Glycemia Post-Reperfusion [1, 3]: 13.6 ± 1.2 (20) mmol/L | Total Cholesterol [1, 3]: 1.4 ± 0.3 (4) mmol/L | Triglyceride [1, 4]: 0.58 ± 0.16 mmol/L | Glycemia Post-Reperfusion [1, 4]: 8.8 ± 0.6 (17) mmol/L | Total Cholesterol [1, 4]: 1.9 ± 0.1 (5) mmol/L | effect on plasma NEFA levels ([1]; 48 hours after reperfusion, in words): no effect | Triglyceride [1, 5]: 0.44 ± 0.03 mmol/L | Total Cholesterol [1, 5]: 1.5 ± 0.03 (6) mmol/L | Triglyceride [1, 6]: 0.55 ± 0.06 mmol/L | Total Cholesterol [1, 6]: 2.5 ± 0.2 (4) mmol/L | Glycemia Before Ischemia ([1]; CD36^+/+ mice): 10.6 ± 0.4 (15) mmol/L | Glycemia Before Ischemia ([1]; CD36^−/− mice): 9.3 ± 0.5 (8) mmol/L | increase of end-systolic ventricular volume [2]: 26% | increase of end-diastolic ventricular volume ([2]; p<0.01): 31% | increase of stroke volume ([2]; p<0.01): 33%
